Measured values published in patent US8734775B2, “Chemokine derived peptides that bind with chemokine receptor CXCR3 and uses for chronic wound and angiogenesis inhibition treatments” (University of Pittsburgh, priority 2011, dated 2014).

Test system: HMEC-1 cells transfected with CXCR3 siRNA
Experiment: Scratch assay in cells transfected with CXCR3 siRNA
Type: cell-based, human
Conditions: CXCR3 knockdown; procedure of Experiment 2
Procedure: In the various experiments described below, to the extent not otherwise noted, CXCR3 siRNA transfection was preformed according to the procedure as previously described by Koh et al. (“Methods in Enzymology,” 2008, vol 443, p. 84), and summarized briefly as follows. HMEC-1 cells were plated in 6 well tissue culture plate at 4.0×10^5 cells/well in complete MCDB131 media and incubated overnight. The cells were ˜75% confluent. The media was removed and replaced with serum free Opti-Mem and incubated for 30 minutes. Dharmafect #4 was added to Opti-Mem to a final concentration of 2.5% (final volume […]) then incubated for 5 minutes at room temp. In parallel, CXCR3 siRNA was diluted in Opti-Mem to a final concentration of […] then incubated for 5 minutes at room temp. CXCR3 siRNA was a pool of equal concentration from Sigma and Santa Cruz. The Dharmafect solution was added to the CXCR3 siRNA pool and incubated for 20 minutes at room temp. […]
To determine whether IP-10dp inhibits endothelial cell motility, a conventional “scratch assay” was performed. […] Images were taken at time zero and 24 hours, and the relative distance traveled by the cells into the a cellular area was determined using MetaMorph. The HMEC-1 culture images were analyzed for the ability of the cells to migrate into a denuded area over a 24 hour period in the presence or absence of VEGF165. […]

## PESKAIKNLLKAVSKEMSKRSP (IP-10dp; listed as Homo sapiens) [synthetic fragment of IP-10 comprising residues 78-98, the C-terminal α-helical domain]
  inhibition of VEGF-induced motility in CXCR3 siRNA-transfected cells: unable to inhibit VEGF-induced motility
